Results on six molecules are retold here after patent US6303641A, “Cyanoamidines as cell proliferation inhibitors” (Leo Pharmaceuticals Products Ltd., priority 1997, dated 2001).

Test [1] has as its system human small cell lung carcinoma (NYH). The test is described as follows: Inhibition of tumour cell proliferation in vitro ([3H]thymidine incorporation), NYH. It counts as cell-based. As to conditions: 24 hours, read-out: The median inhibition concentration (IC50, nM) of NYH. The method, then:
(§1) The inhibition of tumour cell proliferation was studied using different types of human cancer cell lines. The cell lines under investigation were small cell lung carcinoma (NYH), and breast cancer (MCF-7) using the following general procedure.
(§2) The cells were cultured in vitro for 24 hours in the presence of the compound under investigation. DNA synthesis was measured by incorporation of [3H]thymidine, and the median inhibitory concentrations (IC50) of the compounds were calculated.
(In general: Dividing cells build labelled thymidine or BrdU into new DNA.)

The subject of test [2] is human breast cancer (MCF-7). The test is described as follows: Inhibition of tumour cell proliferation in vitro ([3H]thymidine incorporation), MCF-7. It is filed as cell-based. As to conditions: MCF7, 24 hours, read-out: The median inhibition concentration (IC50, nM) of MCF-7. The method, then: as §1, §2
Another test concerns Yoshida sarcoma cells. The test is described as follows: Survival of Yoshida tumour-bearing rats (Increased Life Span). It counts as in vivo, LEW/Mol inbred female rats. The note with it: once daily from day 3. How it is done:
The prolongation of survival time of tumour-bearing rats was studied in LEW/Mol inbred female rats inoculated with Yoshida sarcoma cells in a number of 2×10^7 cells. Tumour-bearing rats (6 animals per group) were dosed orally once daily from day 3 after the transfer of tumour cells and until death or until the body-weights had increased by 10% as a consequence of tumour proliferation. The mean survival day of treated versus non-treated rats is used to calculate ILS (Increased Life Span). ILS=((mean treated/mean control)-1)*100%.

As to `N#CNC(=Nc1ccncc1)NCCCCCOc1ccccc1` [Prior art C, N-Cyano-N'-(5-phenoxypentyl)-N"-4-pyridylguanidine, reference compound], the IC50 in test [1] worked out at 45 nM; in test [2] it was 250 nM. Moreover, the “Increased life span (ILS)” value in the test on Yoshida sarcoma cells (50 mg/kg p.o.) is reported as 35%.

For the molecule `N#CN=C(NCCCCCCOc1ccc(Cl)cc1)c1cccnc1` [Example no. 1, N^2 -Cyano-N^1-(6(4-chlorophenoxy)hexyl)-3-pyridinecarboxamidine], the IC50 in test [1] was 39 nM; in test [2] it was 350 nM. Further, the results for the “Increased life span (ILS)” value with Yoshida sarcoma cells (10 mg/kg p.o.), with Yoshida sarcoma cells (20 mg/kg p.o.) and in the test with Yoshida sarcoma cells (30 mg/kg p.o.) were 60%, 90% and 102%, respectively.

In the case of `CCCCCCCCNC(=NC#N)c1cccnc1` [Prior art A, N^2 -Cyano-N^1-octyl-3-pyridinecarboxamidine, reference compound], in test [2], the IC50 came to 10000 nM.

Turning to `COc1ccccc1OCCCCCCNC(=NC#N)c1cccnc1` [Example no. 2, N^2 -Cyano-N^1-(6-(2-methoxyphenoxy)hexyl)-3-pyridinecarboxamidine], the results for the IC50 in test [1] and in test [2] were 340 nM and 540 nM, respectively.

For the molecule `N#CNC(=Nc1ccncc1)NCCCCOc1ccccc1` [Prior art B, N-Cyano-N'-(4-phenoxybutyl)-N"-4-pyridylguanidine, reference compound], the values for the IC50 in test [1] and in test [2] were 380 nM and 920 nM, respectively.

For `N#CN=C(NCCCCCCOc1ccc2c(c1)OCO2)c1cccnc1` [Example no. 3, N^2 -Cyano-N^1-(6-(3,4-methylenedioxyphenoxy)hexyl)-3-pyridinecarboxamidine], the IC50 in test [1] stood at 350 nM; in test [2], 740 nM.
